For orientation: LD50 means the dose at which mortality reaches 50%.

We go through eleven compounds from patent publication US4190661A, “Pyrazolo-quinolines, compositions and pharmaceutical preparations” (Laboratoires Chauvin-Blache, priority 1977, dated 1980).

For one series, the system named is Klebsiella pneumoniae. Put plainly: antibacterial activity in vitro, dilution in liquid medium method (MIC/MBC). The series is classed as cell-based. Particulars: read-out: minimum inhibiting concentration (MIC). As for the experimental part: (§1) The nalidixic acid solution and the solutions containing compounds of the formula (I) were prepared in distilled water with addition of sodium hydroxide.
(§2) The strains used are all obtained from the hospital where they were recently isolated from urinary infections (except Salmonella para B and Listeria which are obtained from a collection):
(§3) Different dilutions of 24 hour cultures in physiological saline were used, depending on the respective growth rate of each germ:
(§4) The test is conducted in phenol red glucose broth inoculated with 0.1 ml of the dilution of the germ studied per 3 ml of broth.
(§5) The bactericidal activity was investigated according to the dilution in liquid medium method.
(§6) After 18 hours in an oven at 37° C., the minimum inhibiting concentration (MIC) corresponding to the last tube whose pH remains unmodified was noted.
(§7) The minimum bactericidal concentration (MBC) was investigated by spreading on a dish of agar medium a dosage of material taken from the tubes which have remained clear. The MBC/24 hrs is the lowest concentration for which the survival rate is zero after a contact time of 24 hours.

Another series relates to Proteus mirabilis. Described as above. Format: cell-based. Particulars: read-out: minimum inhibiting concentration (MIC). As for the experimental part:
as §1, §2, §3, §4, §5, §6, §7

In a further series the test system is Pseudomonas aeruginosa. The description is as above. Format: cell-based. Particulars: read-out: minimum inhibiting concentration (MIC). As for the experimental part: as §1, §2, §3, §4, §5, §6, §7
Another series concerns Staphylococcus aureus. The description is as above. Format: cell-based. Particulars: read-out: minimum inhibiting concentration (MIC). As for the experimental part:
as §1, §2, §3, §4, §5, §6, §7

Another series has as its system Streptococcus foecalis. The description is as above. Format: cell-based. Particulars: read-out: minimum inhibiting concentration (MIC). As for the experimental part:
as §1, §2, §3, §4, §5, §6, §7

A further series has as its system Escherichia coli. The series is described as above. Format: cell-based. Particulars: for MIC: read-out: minimum inhibiting concentration (MIC); for MBC: read-out: minimum bactericidal concentration (MBC). As for the experimental part:
as §1, §2, §3, §4, §5, §6, §7

The next series concerns Salmonella para B. The description is as above. The series is classed as cell-based. Particulars: for MIC: read-out: minimum inhibiting concentration (MIC). As for the experimental part: as §1, §2, §3, §4, §5, §6, §7
Series [1] can be described thus: acute toxicity, graphical method according to Miller and Tainter. Particulars: mouse, in vivo, mice. The text has this:
Indeed, their LD50 values in mice, as determined by the graphical method according to Miller and Tainter are as follows: […]

Another series concerns Citrobacter. Put plainly: antibacterial activity in vitro, dilution in liquid medium method (MIC/MBC). Format: cell-based. Particulars: read-out: minimum inhibiting concentration (MIC). As for the experimental part: as §1, §2, §3, §4, §5, §6, §7
A further series deals with Enterobacter cloacae. Described as above. The series is classed as cell-based. Particulars: for MIC: read-out: minimum inhibiting concentration (MIC). As for the experimental part:
as §1, §2, §3, §4, §5, §6, §7

For another series, the system named is Listeria monocytogenes. The series is described as above. Particulars: for MIC: read-out: minimum inhibiting concentration (MIC); for MBC: read-out: minimum bactericidal concentration (MBC). Format: cell-based. As for the experimental part:
as §1, §2, §3, §4, §5, §6, §7

Series [2] concerns Enterobacter liquefaciens. Described as above. Format: cell-based. Particulars: for MIC: read-out: minimum inhibiting concentration (MIC). As for the experimental part:
as §1, §2
Enterobacter liquefaciens
as §3, §4, §5, §6, §7

Where [3] appears, read: Streptococcus foecalis, 18 hours, 37° C.
Where [4] appears, read: Salmonella para B, 18 hours, 37° C.

In brackets after ≈: the same amount, converted by molar mass. Like-named read-outs stand apart in the source and are kept apart here.

For `CCn1cc(C(=O)O)c(=O)c2c3nn(C)cc3ccc21` [I g, 1-ethyl-3-carboxy-4-oxo-6-methyl-pyrazolo[3,4-f]uinoline], the MIC with Klebsiella pneumoniae (18 hours, 37° C.) was over 100 µg/mL; in the series with Proteus mirabilis (18 hours, 37° C.) it was over 100 µg/mL; in the series with Pseudomonas aeruginosa (18 hours, 37° C.) it was over 100 µg/mL; in the series with Staphylococcus aureus (18 hours, 37° C.), over 100 µg/mL; in the series on Streptococcus foecalis (setting [3]) it was over 100 µg/mL.

On to `CCn1cc(C(=O)O)c(=O)c2c3cnn(Cc4ccccc4)c3ccc21` [I d, 1-ethyl-3-carboxy-4-oxo-7-benzyl-pyrazolo[4,5-f]quinoline], for which the MIC in the series on Proteus mirabilis (18 hours, 37° C.) is over 10 µg/mL; in the series on Pseudomonas aeruginosa (18 hours, 37° C.), over 10 µg/mL; in the series on Staphylococcus aureus (18 hours, 37° C.) it was over 10 µg/mL; in the series with Streptococcus foecalis (setting [3]), over 10 µg/mL.

Consider `CCn1cc(C(=O)O)c(=O)c2ccc3[nH]ncc3c21` [I b, 1-ethyl-3-carboxy-4-oxo-pyrazolo[5,4-h]quinoline], for which the MIC in the series on Escherichia coli (18 hours, 37° C.) was over 100 µg/mL; with Klebsiella pneumoniae (18 hours, 37° C.) it was over 100 µg/mL; with Proteus mirabilis (18 hours, 37° C.) it was over 100 µg/mL; with Pseudomonas aeruginosa (18 hours, 37° C.) it was over 100 µg/mL; in the series on Salmonella para B (setting [4]) it was over 100 µg/mL; in the series with Staphylococcus aureus (18 hours, 37° C.) it was over 100 µg/mL. Moreover, in the series on Streptococcus foecalis (setting [3]), the MIC is over 100 µg/mL.

Regarding `CCn1cc(C(=O)O)c(=O)c2ccc3cnn(CC)c3c21` [I h, 1,9-diethyl-3-carboxy-4-oxo-pyrazolo[4,5-h]quinoline], the MIC is over 10 µg/mL with Klebsiella pneumoniae (18 hours, 37° C.); over 10 µg/mL in the series on Proteus mirabilis (18 hours, 37° C.); over 10 µg/mL in the series on Pseudomonas aeruginosa (18 hours, 37° C.); over 10 µg/mL with Staphylococcus aureus (18 hours, 37° C.); over 10 µg/mL with Streptococcus foecalis (setting [3]).

For `CCn1cc(C(=O)O)c(=O)c2c3[nH]ncc3ccc21` [Ie], the LD50 in [1] (ip, intraperitoneal route) was 2500 mg/kg; in series [1] (oral route), 4700 mg/kg.

Regarding `CCn1cc(C(=O)O)c(=O)n2nc3ccccc3c12` [I a, 3-oxo-4-carboxy-6-ethyl-pyrimido[3,2-b]indazole], the MIC was over 100 µg/mL in the series with Escherichia coli (18 hours, 37° C.); over 100 µg/mL with Klebsiella pneumoniae (18 hours, 37° C.); over 100 µg/mL with Proteus mirabilis (18 hours, 37° C.); over 100 µg/mL in the series with Pseudomonas aeruginosa (18 hours, 37° C.); over 100 µg/mL with Salmonella para B (setting [4]); over 100 µg/mL in the series with Staphylococcus aureus (18 hours, 37° C.). Further, in the series on Streptococcus foecalis (setting [3]), the MIC was over 100 µg/mL.

For `CCn1cc(C(=O)O)c(=O)c2c3cn[nH]c3ccc21` [I c, 1-Ethyl-3-carboxy-4-oxo-pyrazolo[4,5-f]quinoline], the MIC in the series on Escherichia coli (18 hours, 37° C.) was over 10 µg/mL; in the series with Klebsiella pneumoniae (18 hours, 37° C.) it was over 10 µg/mL; in the series with Proteus mirabilis (18 hours, 37° C.), over 10 µg/mL; in the series with Pseudomonas aeruginosa (18 hours, 37° C.) it was over 10 µg/mL; in the series on Staphylococcus aureus (18 hours, 37° C.), over 10 µg/mL; with Streptococcus foecalis (setting [3]), over 10 µg/mL.

In the case of `CCn1cc(C(=O)O)c(=O)c2ccc(C)nc21` [Nalidixic acid, nalidixic acid, reference compound], the MIC with Citrobacter (18 h) was over 200 µg/mL; in the series with Enterobacter cloacae (18 h), 50 µg/mL (≈ 215 µM); in the series on Escherichia coli (18 h) it was 5 µg/mL (≈ 21.5 µM); in the series on Klebsiella pneumoniae (18 h), over 200 µg/mL; in the series on Listeria monocytogenes (18 h), 5 µg/mL (≈ 21.5 µM); in the series on Proteus mirabilis (18 h), over 200 µg/mL. The MIC in the series with Pseudomonas aeruginosa (18 h) is over 200 µg/mL; in the series with Salmonella para B (Salmonella, 18 h), 5 µg/mL (≈ 21.5 µM); in the series with Staphylococcus aureus (18 h), over 200 µg/mL; in the series on Streptococcus foecalis (Streptococcus, 18 h) it was over 200 µg/mL; in [2] (Enterobacter, 18 h), 25 µg/mL (≈ 108 µM). Further, the MBC amounted to 100 µg/mL (≈ 431 µM) in the series with Enterobacter cloacae (24 h, read-out: minimum bactericidal concentration (MBC)); 100 µg/mL (≈ 431 µM) in the series with Escherichia coli (24 h); 100 µg/mL (≈ 431 µM) in the series on Listeria monocytogenes (24 h); 100 µg/mL (≈ 431 µM) with Salmonella para B (Salmonella, 24 h, read-out: minimum bactericidal concentration (MBC)); 100 µg/mL (≈ 431 µM) in series [2] (Enterobacter, 24 h, read-out: minimum bactericidal concentration (MBC)).

Consider `C=Cn1cc(C(=O)O)c(=O)c2c3[nH]ncc3ccc21` [I e', 1-Vinyl-3-carboxy-4-oxo-pyrazolo[5,4-f]quinoline], for which the MIC is over 10 µg/mL in the series on Citrobacter (18 hours, 37° C.); 5 µg/mL (≈ 19.6 µM) with Escherichia coli (18 hours, 37° C.); over 10 µg/mL with Klebsiella pneumoniae (18 hours, 37° C.); over 10 µg/mL with Proteus mirabilis (18 hours, 37° C.); over 10 µg/mL in the series with Pseudomonas aeruginosa (18 hours, 37° C.); over 10 µg/mL in the series with Staphylococcus aureus (18 hours, 37° C.). In the series on Streptococcus foecalis (setting [3]), the MIC is over 10 µg/mL. Besides, the LD50 in [1] (ip, intraperitoneal route) was 2800 mg/kg; in series [1] (oral route), over 5000 mg/kg.

`CCn1cc(C(=O)O)c(=O)c2c1ccc1cnn(C)c12` [I f, 1-ethyl-3-carboxy-4-oxo-5-methyl-pyrazolo[5,4-f]uinoline]: the MIC in the series on Proteus mirabilis (18 hours, 37° C.) was over 10 µg/mL; in the series on Pseudomonas aeruginosa (18 hours, 37° C.), over 10 µg/mL; in the series on Staphylococcus aureus (18 hours, 37° C.), over 10 µg/mL; with Streptococcus foecalis (setting [3]), over 10 µg/mL.

In the case of `CCn1cc(C(=O)O)c(=O)c2c3[nH]ncc3ccc21` [I e], the MIC was over 10 µg/mL in the series with Citrobacter (18 hours, 37° C.); over 10 µg/mL in the series with Enterobacter cloacae (18 hours, 37° C.); 5 µg/mL (≈ 19.4 µM) in the series with Escherichia coli (18 hours, 37° C.); over 10 µg/mL in the series with Klebsiella pneumoniae (18 hours, 37° C.); 10 µg/mL (≈ 38.9 µM) in the series on Listeria monocytogenes (18 hours, 37° C.); over 10 µg/mL in the series on Proteus mirabilis (18 hours, 37° C.). The MIC with Pseudomonas aeruginosa (18 hours, 37° C.) was over 10 µg/mL; in the series with Salmonella para B (setting [4]) it was over 10 µg/mL; with Staphylococcus aureus (18 hours, 37° C.), over 10 µg/mL; in the series on Streptococcus foecalis (setting [3]), over 10 µg/mL; in series [2] (Enterobacter liquefaciens, 18 hours, 37° C.), over 10 µg/mL. The MBC with Escherichia coli (contact time 24 hours) and with Listeria monocytogenes (contact time 24 hours) was 100 µg/mL (≈ 389 µM) in each case.
